System: Streptococcus agalactiae - clinical strain
Experiment: Determination of the MIC value of totarol, broth dilution in 96-well plates with OD and quantitative culture
Assay type: cell-based
Details: for OD, average of 3 measurements / OD: 620 nm
Method: Test of antibacterial activity of totarol using DMI (dimethylisosorbide) as a solvent.
1 ml of the suspension was collected to 9 ml of a TSB broth ([…]). Suspensions with a dilution of 10^−6 were prepared in the described way. A suspension with a cell density of 10^5 cfu/ml was selected for further investigations. For each strain, 2 96-well plates were prepared: the first one was intended for the OD measurement, the second one—for quantitative culture on solid media. • A/ to wells B1-D1, B2-D2 and B-D 4-11, 100 µl of the broth were added; • B/ to wells B3-D3, 200 µl of the broth were added; • C/ to wells B1-D1, 1 µl of stock I was added; • D/ to wells B2-D2, 1 µl of stock II was added; • E/ to wells B3-D3, 2 µl of stock III were added. Using a multichannel pipette, 100 µl of the sample were collected from each of the B3-D3 wells and placed in wells B4-D4 (mixing by sucking the content in and letting it out for 5 times). The pipette tips were replaced and 100 µl of the content were collected from of the B4-D4 wells, and placed in wells B5-D5, mixing as previously. These operations were repeated through the wells B11-D11. The content in the B11-D11 wells was mixed, and 100 µl of the fluid were collected and discarded. This way, a series of dilutions of totarol samples in DMI in the range of 0.32% to 0.0004% was obtained. Then, 100 µl of a corresponding bacterial culture were added to the wells B, C, D 1-11. In consequence, a change in the final concentration range occurred, to 0.16%-0.0002%. Control Preparation: • Negative control: 100 µl of the broth+1 pl DMI were added to the Al well. • Positive control (I): 100 µl of the broth with the bacterial culture were added to the wells E1-G1. • Diluent positive control (II): 100 µl of the broth with the bacterial culture+1 pl DMI were added to the wells E2-G2. The OD value in the individual wells was read at the wavelength of 620 nm (read time 0). From the second 96-well plate, a culture was inoculated by a quantitative method from every dilution onto a well with a proper solid medium, and incubated for 24 h at 37° C. under aerobic or anaerobic conditions, depending on the strain. The plates were incubated under aerobic conditions or in an atmosphere of an elevated CO2 concentration (for the strains requiring it) in an incubator at 37° C. The OD was read after 8 h, 16 h, and 24 h, respectively. Before every OD measurement, the contents of the wells were mixed delicately. In parallel to the OD readout, cultures we inoculated from the second 96-well plate, from every dilution, into plates with a proper solid medium, and incubated for 24 h at 37° C., under aerobic or anaerobic conditions. For the analysis of the experimental results, an average value of the OD measurement obtained from three repetitions in the individual times (0, 8, 16, and 24 h) for the individual microbes (Gardnerella vaginalis, Streptococcus agalactiae, Enterococcus faecalis, Lactobacillus gasseri/plantarum) was taken. Additionally, the number of bacteria grown on solid media was taken into account. The results of the tests confirm the specific, concentration-dependent selectiveness, and the high antibacterial effectiveness of totarol against the pathogenic microorganisms: Gardnerella vaginalis, Streptococcus agalactiae, Enterococcus faecalis at low MIC values safe for bacteria of the Lactobacillus genus.

**Q.** Which results are given for `CC(C)c1c(O)ccc2c1CC[C@H]1C(C)(C)CCC[C@]21C` [Totarol, totarol]?
**A.** MIC value (S. agalactiae): 0.0013%; Viable bacterial count by quantitative culture (cfu/ml) (totarol 0.0002%, 0 h): 3.4 × 10^5 cfu/ml; OD, average of 3 measurements (totarol 0.0002%, 0 h): 0.289; Viable bacterial count by quantitative culture (cfu/ml) (totarol 0.0002%, 8 h): 4 × 10^6 cfu/ml; OD, average of 3 measurements (totarol 0.0002%, 8 h): 0.314; Viable bacterial count by quantitative culture (cfu/ml) (totarol 0.0002%, 16 h): 1.1 × 10^6 cfu/ml; OD, average of 3 measurements (totarol 0.0002%, 16 h): 0.498; Viable bacterial count by quantitative culture (cfu/ml) (totarol 0.0002%, 24 h): 1 × 10^7 cfu/ml; OD (totarol 0.0002%, 24 h): 0.682; Viable bacterial count by quantitative culture (cfu/ml) (totarol 0.0004%, 0 h): 6 × 10^5 cfu/ml; OD, average of 3 measurements (totarol 0.0004%, 0 h): 0.305; Viable bacterial count by quantitative culture (cfu/ml) (totarol 0.0004%, 8 h): 6 × 10^6 cfu/ml; OD, average of 3 measurements (totarol 0.0004%, 8 h): 0.318; Viable bacterial count by quantitative culture (cfu/ml) (totarol 0.0004%, 16 h): 9.1 × 10^5 cfu/ml; OD, average of 3 measurements (totarol 0.0004%, 16 h): 0.493; Viable bacterial count by quantitative culture (cfu/ml) (totarol 0.0004%, 24 h): 2 × 10^7 cfu/ml; OD (totarol 0.0004%, 24 h): 0.668; Viable bacterial count by quantitative culture (cfu/ml) (totarol 0.0007%, 0 h): 4.5 × 10^5 cfu/ml; OD, average of 3 measurements (totarol 0.0007%, 0 h): 0.297; Inoculation cfu/ml (totarol 0.0007%, 8 h): 6 × 10^4 cfu/ml; OD, average of 3 measurements (totarol 0.0007%, 8 h): 0.319; Viable bacterial count by quantitative culture (cfu/ml) (totarol 0.0007%, 16 h): 3.5 × 10^6 cfu/ml; OD, average of 3 measurements (totarol 0.0007%, 16 h): 0.630; Viable bacterial count by quantitative culture (cfu/ml) (totarol 0.0007%, 24 h): 6 × 10^7 cfu/ml; OD (totarol 0.0007%, 24 h): 0.941; Viable bacterial count by quantitative culture (cfu/ml) (totarol 0.0013%, 0 h): 3.3 × 10^5 cfu/ml; OD, average of 3 measurements (totarol 0.0013%, 0 h): 0.299; Viable bacterial count by quantitative culture (cfu/ml) (totarol 0.0013%, 8 h): 0 cfu/ml; OD, average of 3 measurements (totarol 0.0013%, 8 h): 0.302; Viable bacterial count by quantitative culture (cfu/ml) (totarol 0.0013%, 16 h): 0 cfu/ml; OD, average of 3 measurements (totarol 0.0013%, 16 h): 0.302; Viable bacterial count by quantitative culture (cfu/ml) (totarol 0.0013%, 24 h): 0 cfu/ml; OD (totarol 0.0013%, 24 h): 0.302; Viable bacterial count by quantitative culture (cfu/ml) (totarol 0.0025%, 0 h): 2.6 × 10^5 cfu/ml; OD, average of 3 measurements (totarol 0.0025%, 0 h): 0.289; Viable bacterial count by quantitative culture (cfu/ml) (totarol 0.0025%, 8 h): 0 cfu/ml; OD, average of 3 measurements (totarol 0.0025%, 8 h): 0.290; Viable bacterial count by quantitative culture (cfu/ml) (totarol 0.0025%, 16 h): 0 cfu/ml; OD, average of 3 measurements (totarol 0.0025%, 16 h): 0.291; Viable bacterial count by quantitative culture (cfu/ml) (totarol 0.0025%, 24 h): 0 cfu/ml; OD (totarol 0.0025%, 24 h): 0.291; Viable bacterial count by quantitative culture (cfu/ml) (totarol 0.005%, 0 h): 1.5 × 10^5 cfu/ml; OD, average of 3 measurements (totarol 0.005%, 0 h): 0.288; Viable bacterial count by quantitative culture (cfu/ml) (totarol 0.005%, 8 h): 0 cfu/ml; OD, average of 3 measurements (totarol 0.005%, 8 h): 0.292; Viable bacterial count by quantitative culture (cfu/ml) (totarol 0.005%, 16 h): 0 cfu/ml; OD, average of 3 measurements (totarol 0.005%, 16 h): 0.296; Viable bacterial count by quantitative culture (cfu/ml) (totarol 0.005%, 24 h): 0 cfu/ml; OD (totarol 0.005%, 24 h): 0.300; Viable bacterial count by quantitative culture (cfu/ml) (totarol 0.01%, 0 h): 10^5 cfu/ml; OD, average of 3 measurements (totarol 0.01%, 0 h): 0.297; Viable bacterial count by quantitative culture (cfu/ml) (totarol 0.01%, 8 h): 0 cfu/ml; OD, average of 3 measurements (totarol 0.01%, 8 h): 0.295; Viable bacterial count by quantitative culture (cfu/ml) (totarol 0.01%, 16 h): 0 cfu/ml; OD, average of 3 measurements (totarol 0.01%, 16 h): 0.301; Viable bacterial count by quantitative culture (cfu/ml) (totarol 0.01%, 24 h): 0 cfu/ml; OD (totarol 0.01%, 24 h): 0.307; Viable bacterial count by quantitative culture (cfu/ml) (totarol 0.02%, 0 h): 10^5 cfu/ml; OD, average of 3 measurements (totarol 0.02%, 0 h): 0.318; Viable bacterial count by quantitative culture (cfu/ml) (totarol 0.02%, 8 h): 0 cfu/ml; OD, average of 3 measurements (totarol 0.02%, 8 h): 0.323; Viable bacterial count by quantitative culture (cfu/ml) (totarol 0.02%, 16 h): 0 cfu/ml; OD, average of 3 measurements (totarol 0.02%, 16 h): 0.324; Viable bacterial count by quantitative culture (cfu/ml) (totarol 0.02%, 24 h): 0 cfu/ml; OD (totarol 0.02%, 24 h): 0.324; Viable bacterial count by quantitative culture (cfu/ml) (totarol 0.04%, 0 h): 3 × 10^5 cfu/ml; OD, average of 3 measurements (totarol 0.04%, 0 h): 0.406; Viable bacterial count by quantitative culture (cfu/ml) (totarol 0.04%, 8 h): 0 cfu/ml; OD, average of 3 measurements (totarol 0.04%, 8 h): 0.535; Viable bacterial count by quantitative culture (cfu/ml) (totarol 0.04%, 16 h): 0 cfu/ml; OD, average of 3 measurements (totarol 0.04%, 16 h): 0.489; Viable bacterial count by quantitative culture (cfu/ml) (totarol 0.04%, 24 h): 0 cfu/ml; OD (totarol 0.04%, 24 h): 0.405; Viable bacterial count by quantitative culture (cfu/ml) (totarol 0.08%, 0 h): 5 × 10^5 cfu/ml; OD, average of 3 measurements (totarol 0.08%, 0 h): 0.563; Viable bacterial count by quantitative culture (cfu/ml) (totarol 0.08%, 8 h): 0 cfu/ml; OD, average of 3 measurements (totarol 0.08%, 8 h): 0.564; Viable bacterial count by quantitative culture (cfu/ml) (totarol 0.08%, 16 h): 0 cfu/ml; OD, average of 3 measurements (totarol 0.08%, 16 h): 0.540; Viable bacterial count by quantitative culture (cfu/ml) (totarol 0.08%, 24 h): 0 cfu/ml; OD (totarol 0.08%, 24 h): 0.430; Viable bacterial count by quantitative culture (cfu/ml) (totarol 0.16%, 0 h): 2 × 10^5 cfu/ml; OD, average of 3 measurements (totarol 0.16%, 0 h): 0.512; Viable bacterial count by quantitative culture (cfu/ml) (totarol 0.16%, 8 h): 0 cfu/ml; OD, average of 3 measurements (totarol 0.16%, 8 h): 0.605; Viable bacterial count by quantitative culture (cfu/ml) (totarol 0.16%, 16 h): 0 cfu/ml; OD, average of 3 measurements (totarol 0.16%, 16 h): 0.569; Viable bacterial count by quantitative culture (cfu/ml) (totarol 0.16%, 24 h): 0 cfu/ml; OD (totarol 0.16%, 24 h): 0.615
